In patent publication US6451339B2, “Compositions and methods for improved delivery of hydrophobic agents” (Lipocine, Inc., priority 1999, dated 2002):

Assay: Surfactant combinations giving clear aqueous dispersions (maximum hydrophobic surfactant, visual optical clarity)
Conditions: for maximum hydrophobic surfactant concentration giving a clear aqueous dispersion: Arlacel 186 - Cremophor RH-40 pair; for approximate maximum grams of hydrophobic surfactant per 100 g of hydrophilic surfactant giving acceptable optical clarity: 10× aqueous dispersion, no solubilizer; for effect of added solubilizer on the relative amount of hydrophobic surfactant that can be used: Cremophor RH 40 hydrophilic surfactant, 20% solubilizer
[1] = weight percent of solubilizer 0
[2] = weight percent of solubilizer 20
[3] = weight percent of solubilizer 50
[4] = hydrophilic surfactant PEG-8 Capric/Caprylic (Labrasol)
[5] = hydrophilic surfactant PEG-25 Glyceryl trioleate (Tagat TO)
[6] = hydrophilic surfactant PEG-35 Castor Oil (Incrocas 35)
[7] = hydrophilic surfactant PEG-40H Castor Oil (Cremophor RH-40)
[8] = hydrophilic surfactant Polysorbate 80 (Tween 80)
[9] = hydrophilic surfactant Polysorbate-20 (Tween 20)
[10] = hydrophilic surfactant PEG-60 Corn Oil (Crovol M-70)
[11] = hydrophilic surfactant Cremophor RH40 + 20% Glycofurol
[12] = hydrophilic surfactant Cremophor RH40 + 20% Triacetin
[13] = hydrophilic surfactant Cremophor RH40, solubilizer (None), reproduced from Table 19
[14] = hydrophilic surfactant Cremophor RH40 + 20% Ethanol
[15] = hydrophilic surfactant Cremophor RH40 + 20% PEG-400

Molecule: CC(=O)OCC(COC(C)=O)OC(C)=O [Triacetin]
- maximum hydrophobic surfactant concentration giving a clear aqueous dispersion [1]: 20 g per 100 g of hydrophilic sur
- maximum hydrophobic surfactant concentration giving a clear aqueous dispersion [2]: 28 g per 100 g of hydrophilic sur
- maximum hydrophobic surfactant concentration giving a clear aqueous dispersion [3]: 25 g per 100 g of hydrophilic sur

Molecule: PEG-20 sorbitan monolaurate
- approximate maximum grams of hydrophobic surfactant (Arlacel 186) per 100 g of hydrophilic surfactant giving a clear aqueous dispersion (hydrophobic surfactant Arlacel 186 + 20% Ethanol): 25 g per 100 g of hydrophilic sur
- approximate maximum grams of hydrophobic surfactant (Arlacel 186) per 100 g of hydrophilic surfactant giving a clear aqueous dispersion (hydrophobic surfactant Arlacel 186 + 20% Triacetin): 25 g per 100 g of hydrophilic sur
- approximate maximum grams of hydrophobic surfactant (Arlacel 186) per 100 g of hydrophilic surfactant giving a clear aqueous dispersion (hydrophobic surfactant Arlacel 186, solubilizer (None), from Table 19): 20 g per 100 g of hydrophilic sur

Molecule: CCCCCCCCCCCCOCCOCCOCCOCCO [PEG-4 lauryl ether]
- approximate maximum grams of hydrophobic surfactant per 100 g of hydrophilic surfactant giving acceptable optical clarity [4]: 90 g per 100 g of hydrophilic sur
- approximate maximum grams of hydrophobic surfactant per 100 g of hydrophilic surfactant giving acceptable optical clarity [5]: 10 g per 100 g of hydrophilic sur
- approximate maximum grams of hydrophobic surfactant per 100 g of hydrophilic surfactant giving acceptable optical clarity [6]: 40 g per 100 g of hydrophilic sur
- approximate maximum grams of hydrophobic surfactant per 100 g of hydrophilic surfactant giving acceptable optical clarity [7]: 45 g per 100 g of hydrophilic sur
- approximate maximum grams of hydrophobic surfactant per 100 g of hydrophilic surfactant giving acceptable optical clarity [8]: 70 g per 100 g of hydrophilic sur
- approximate maximum grams of hydrophobic surfactant per 100 g of hydrophilic surfactant giving acceptable optical clarity [9]: 95 g per 100 g of hydrophilic sur

Molecule: PEG-3 oleyl ether
- approximate maximum grams of hydrophobic surfactant per 100 g of hydrophilic surfactant giving acceptable optical clarity [4]: 25 g per 100 g of hydrophilic sur
- approximate maximum grams of hydrophobic surfactant per 100 g of hydrophilic surfactant giving acceptable optical clarity [5]: 10 g per 100 g of hydrophilic sur
- approximate maximum grams of hydrophobic surfactant per 100 g of hydrophilic surfactant giving acceptable optical clarity [6]: 20 g per 100 g of hydrophilic sur
- approximate maximum grams of hydrophobic surfactant per 100 g of hydrophilic surfactant giving acceptable optical clarity [7]: 30 g per 100 g of hydrophilic sur
- approximate maximum grams of hydrophobic surfactant per 100 g of hydrophilic surfactant giving acceptable optical clarity [10]: 20 g per 100 g of hydrophilic sur
- approximate maximum grams of hydrophobic surfactant per 100 g of hydrophilic surfactant giving acceptable optical clarity [8]: 20 g per 100 g of hydrophilic sur
- approximate maximum grams of hydrophobic surfactant per 100 g of hydrophilic surfactant giving acceptable optical clarity [9]: 25 g per 100 g of hydrophilic sur

Molecule: Sorbitan monolaurate
- approximate maximum grams of hydrophobic surfactant per 100 g of hydrophilic surfactant giving a clear aqueous dispersion [11]: 65 g per 100 g of hydrophilic sur
- approximate maximum grams of hydrophobic surfactant per 100 g of hydrophilic surfactant giving a clear aqueous dispersion [12]: 65 g per 100 g of hydrophilic sur
- approximate maximum grams of hydrophobic surfactant per 100 g of hydrophilic surfactant giving a clear aqueous dispersion [13]: 20 g per 100 g of hydrophilic sur
- approximate maximum grams of hydrophobic surfactant per 100 g of hydrophilic surfactant giving acceptable optical clarity [4]: 30 g per 100 g of hydrophilic sur
- approximate maximum grams of hydrophobic surfactant per 100 g of hydrophilic surfactant giving acceptable optical clarity [5]: 10 g per 100 g of hydrophilic sur
- approximate maximum grams of hydrophobic surfactant per 100 g of hydrophilic surfactant giving acceptable optical clarity [6]: 30 g per 100 g of hydrophilic sur
- approximate maximum grams of hydrophobic surfactant per 100 g of hydrophilic surfactant giving acceptable optical clarity [7]: 20 g per 100 g of hydrophilic sur
- approximate maximum grams of hydrophobic surfactant per 100 g of hydrophilic surfactant giving acceptable optical clarity [10]: 15 g per 100 g of hydrophilic sur
- approximate maximum grams of hydrophobic surfactant per 100 g of hydrophilic surfactant giving acceptable optical clarity [8]: 10 g per 100 g of hydrophilic sur
- approximate maximum grams of hydrophobic surfactant per 100 g of hydrophilic surfactant giving acceptable optical clarity [9]: 20 g per 100 g of hydrophilic sur

Molecule: CCCCCCCC/C=C\CCCCCCCC(=O)OCC(O)CO (stereo not drawn) [Glyceryl monooleate (C18:1), Glyceryl monooleate]
- effect of added solubilizer on the relative amount of hydrophobic surfactant that can be used: moderate
- approximate maximum grams of hydrophobic surfactant per 100 g of hydrophilic surfactant giving a clear aqueous dispersion [14]: 42 g per 100 g of hydrophilic sur
- approximate maximum grams of hydrophobic surfactant per 100 g of hydrophilic surfactant giving a clear aqueous dispersion [11]: 44 g per 100 g of hydrophilic sur
- approximate maximum grams of hydrophobic surfactant per 100 g of hydrophilic surfactant giving a clear aqueous dispersion [15]: 40 g per 100 g of hydrophilic sur
- approximate maximum grams of hydrophobic surfactant per 100 g of hydrophilic surfactant giving a clear aqueous dispersion [12]: 40 g per 100 g of hydrophilic sur
- approximate maximum grams of hydrophobic surfactant per 100 g of hydrophilic surfactant giving a clear aqueous dispersion [13]: 40 g per 100 g of hydrophilic sur
- approximate maximum grams of hydrophobic surfactant per 100 g of hydrophilic surfactant giving acceptable optical clarity [4]: 35 g per 100 g of hydrophilic sur
- approximate maximum grams of hydrophobic surfactant per 100 g of hydrophilic surfactant giving acceptable optical clarity [5]: 10 g per 100 g of hydrophilic sur
- approximate maximum grams of hydrophobic surfactant per 100 g of hydrophilic surfactant giving acceptable optical clarity [6]: 15 g per 100 g of hydrophilic sur
- approximate maximum grams of hydrophobic surfactant per 100 g of hydrophilic surfactant giving acceptable optical clarity [7]: 40 g per 100 g of hydrophilic sur
- approximate maximum grams of hydrophobic surfactant per 100 g of hydrophilic surfactant giving acceptable optical clarity [10]: 10 g per 100 g of hydrophilic sur
- approximate maximum grams of hydrophobic surfactant per 100 g of hydrophilic surfactant giving acceptable optical clarity [8]: 12 g per 100 g of hydrophilic sur
- approximate maximum grams of hydrophobic surfactant per 100 g of hydrophilic surfactant giving acceptable optical clarity [9]: 10 g per 100 g of hydrophilic sur

Molecule: Sorbitan monooleate
- effect of added solubilizer on the relative amount of hydrophobic surfactant that can be used: decreases
- approximate maximum grams of hydrophobic surfactant per 100 g of hydrophilic surfactant giving a clear aqueous dispersion [14]: 40 g per 100 g of hydrophilic sur
- approximate maximum grams of hydrophobic surfactant per 100 g of hydrophilic surfactant giving a clear aqueous dispersion [11]: 30 g per 100 g of hydrophilic sur
- approximate maximum grams of hydrophobic surfactant per 100 g of hydrophilic surfactant giving a clear aqueous dispersion [15]: 25 g per 100 g of hydrophilic sur
- approximate maximum grams of hydrophobic surfactant per 100 g of hydrophilic surfactant giving a clear aqueous dispersion [12]: 40 g per 100 g of hydrophilic sur
- approximate maximum grams of hydrophobic surfactant per 100 g of hydrophilic surfactant giving a clear aqueous dispersion [13]: 65 g per 100 g of hydrophilic sur
- approximate maximum grams of hydrophobic surfactant per 100 g of hydrophilic surfactant giving acceptable optical clarity [4]: 15 g per 100 g of hydrophilic sur
- approximate maximum grams of hydrophobic surfactant per 100 g of hydrophilic surfactant giving acceptable optical clarity [5]: 10 g per 100 g of hydrophilic sur
- approximate maximum grams of hydrophobic surfactant per 100 g of hydrophilic surfactant giving acceptable optical clarity [6]: 25 g per 100 g of hydrophilic sur
- approximate maximum grams of hydrophobic surfactant per 100 g of hydrophilic surfactant giving acceptable optical clarity [7]: 65 g per 100 g of hydrophilic sur
- approximate maximum grams of hydrophobic surfactant per 100 g of hydrophilic surfactant giving acceptable optical clarity [10]: 20 g per 100 g of hydrophilic sur
- approximate maximum grams of hydrophobic surfactant per 100 g of hydrophilic surfactant giving acceptable optical clarity [8]: 5 g per 100 g of hydrophilic sur
- approximate maximum grams of hydrophobic surfactant per 100 g of hydrophilic surfactant giving acceptable optical clarity [9]: 5 g per 100 g of hydrophilic sur

Molecule: tetrahydrofurfuryl alcohol PEG ether [Glycofurol]
- maximum hydrophobic surfactant concentration giving a clear aqueous dispersion [1]: 20 g per 100 g of hydrophilic sur
- maximum hydrophobic surfactant concentration giving a clear aqueous dispersion [2]: 25 g per 100 g of hydrophilic sur
- maximum hydrophobic surfactant concentration giving a clear aqueous dispersion [3]: 30 g per 100 g of hydrophilic sur

Molecule: Glyceryl mono-, dioleate
- approximate maximum grams of hydrophobic surfactant per 100 g of hydrophilic surfactant giving acceptable optical clarity [4]: 25 g per 100 g of hydrophilic sur
- approximate maximum grams of hydrophobic surfactant per 100 g of hydrophilic surfactant giving acceptable optical clarity [5]: 10 g per 100 g of hydrophilic sur
- approximate maximum grams of hydrophobic surfactant per 100 g of hydrophilic surfactant giving acceptable optical clarity [7]: 10 g per 100 g of hydrophilic sur
- approximate maximum grams of hydrophobic surfactant per 100 g of hydrophilic surfactant giving acceptable optical clarity [10]: 10 g per 100 g of hydrophilic sur

Molecule: CC(O)CO (stereo not drawn) [Propylene Glycol]
- maximum hydrophobic surfactant concentration giving a clear aqueous dispersion [1]: 20 g per 100 g of hydrophilic sur
- maximum hydrophobic surfactant concentration giving a clear aqueous dispersion [2]: 28 g per 100 g of hydrophilic sur
- maximum hydrophobic surfactant concentration giving a clear aqueous dispersion [3]: 30 g per 100 g of hydrophilic sur

Molecule: CCO [Ethanol]
- maximum hydrophobic surfactant concentration giving a clear aqueous dispersion [1]: 20 g per 100 g of hydrophilic sur
- maximum hydrophobic surfactant concentration giving a clear aqueous dispersion [2]: 25 g per 100 g of hydrophilic sur
- maximum hydrophobic surfactant concentration giving a clear aqueous dispersion [3]: 30 g per 100 g of hydrophilic sur

Molecule: PEG-400
- maximum hydrophobic surfactant concentration giving a clear aqueous dispersion [1]: 20 g per 100 g of hydrophilic sur
- maximum hydrophobic surfactant concentration giving a clear aqueous dispersion [2]: 25 g per 100 g of hydrophilic sur
- maximum hydrophobic surfactant concentration giving a clear aqueous dispersion [3]: 25 g per 100 g of hydrophilic sur

Molecule: Polyglyceryl-6 dioleate
- approximate maximum grams of hydrophobic surfactant per 100 g of hydrophilic surfactant giving acceptable optical clarity [4]: 35 g per 100 g of hydrophilic sur
- approximate maximum grams of hydrophobic surfactant per 100 g of hydrophilic surfactant giving acceptable optical clarity [5]: 10 g per 100 g of hydrophilic sur
- approximate maximum grams of hydrophobic surfactant per 100 g of hydrophilic surfactant giving acceptable optical clarity [6]: 10 g per 100 g of hydrophilic sur
- approximate maximum grams of hydrophobic surfactant per 100 g of hydrophilic surfactant giving acceptable optical clarity [7]: 5 g per 100 g of hydrophilic sur
- approximate maximum grams of hydrophobic surfactant per 100 g of hydrophilic surfactant giving acceptable optical clarity [10]: 10 g per 100 g of hydrophilic sur
- approximate maximum grams of hydrophobic surfactant per 100 g of hydrophilic surfactant giving acceptable optical clarity [8]: 10 g per 100 g of hydrophilic sur
- approximate maximum grams of hydrophobic surfactant per 100 g of hydrophilic surfactant giving acceptable optical clarity [9]: 35 g per 100 g of hydrophilic sur
